Converted amounts (≈) assume the structure as drawn. Like-named read-outs stand apart in the source and are kept apart here. Where a SMILES comes first, the peptide text is derived from it.
Legend:
[1] = tested on: E. coli; experiment: microbe, parasite or virus in culture; type: cell-based; conditions: Escherichia coli, 18 h
Description: (§1) S. aureus and S. enteritidis isolates were obtained from laboratory clinical isolates, and avian pathogenic E. coli was kindly provided by Professor Qingke Kong (College of Veterinary Medicine, Southwest University). […] Bacteria were cultured at 37°C for 18 h in MHB or LB agar plates.
(§2) Briefly, bacteria were maintained in MHB medium at 37°C and grown to mid-logarithmic growth phase before being tested. […] After incubation, minimum inhibitory concentration (MIC) was determined by the observation of turbidity, and minimum bactericidal concentration (MBC) was determined by colony counting. […] After overnight culture at 37°C, survival bacteria were counted.

[2] = tested on: S. aureus; experiment: microbe, parasite or virus in culture; type: cell-based; conditions: Staphylococcus aureus, 18 h
Description: as §1, §2

[3] = tested on: S. enteritidis; experiment: microbe, parasite or virus in culture; type: cell-based; conditions: Salmonella enterica, MHB, 18 h, 37°C, triplicate; for MBC: colony counting; for MIC: turbidity
Excerpt: S. aureus and S. enteritidis isolates were obtained from laboratory clinical isolates, and avian pathogenic E. coli was kindly provided by Professor Qingke Kong (College of Veterinary Medicine, Southwest University). Mueller–Hinton broth (MHB; Beijing Land Bridge Technology Co., Ltd., China) was used as bacterial growth media for antimicrobial activity assays, and Luria–Bertani (LB; Qingdao Hope Bio-Technology Co., Ltd., China) agar plates were used for the colony-counting assay. Bacteria were cultured at 37°C for 18 h in MHB or LB agar plates.
Antimicrobial activity of AMPs and antibiotics was performed by the broth microdilution assay as reported previously (Wiegand et al., [2008]). Briefly, bacteria were maintained in MHB medium at 37°C and grown to mid-logarithmic growth phase before being tested. Then, 50 μl of peptides (0–80 μM) and antibiotics (0–40,960 μM) with triplicate were mixed with an equal volume of bacterial suspension (2 × 10^6 CFU/ml) in 96-well plates and incubated for 18 h at 37°C. After incubation, minimum inhibitory concentration (MIC) was determined by the observation of turbidity, and minimum bactericidal concentration (MBC) was determined by colony counting. […] After overnight culture at 37°C, survival bacteria were counted.

[4] = tested on: PK-15 cells; experiment: Cytotoxicity, WST-1 assay; type: cell-based
Description: Cells were seeded at a density of 1 × 10^5 cells/well in 48-well plates and cultured overnight before being used for assays described below. For cytotoxicity assay, mice peritoneal macrophages and PK-15 cells were prepared in a 48-well plate as described above and incubated with or without tested compounds for 2 h at 37°C with CO2. After 2 h incubation, cells were washed with a cell culture medium twice and continued to culture for 22 or 46 h. After 24 and 48 h incubation, 150 μl of 10% WST-1 reagent was added according to the protocols of the manufacturer. After 20 min incubation, absorbance was measured at 450 nm with a microplate reader (Bio-Rad, Japan) and was corrected for absorbance at 630 nm. Untreated cells were set as a control. The percent of cell viability (%) was calculated using the following formula: Cell viability (%) =OD450nm of treated sample/OD450nm of control×100%

[5] = tested on: red blood cells of mice; experiment: Hemolytic activity assay; type: cell-based
Description: Murine erythrocytes and peritoneal macrophages were obtained from wild-type (WT) C57BL/6 mice (Chongqing Academy of Chinese Material Medical, China). Briefly, erythrocytes were obtained by collecting blood from the tail vein. […] The hemolytic activities of AMPs and antibiotics were determined as previously described (Song et al., [2020]). In brief, whole mice blood was centrifuged at 1,500 rpm for 5 min at room temperature and then washed three times with phosphate-buffered saline (PBS) to obtain red blood cells (RBCs). Subsequently, 2% RBCs in PBS were prepared. Then, aliquots of 100 μl RBCs were mixed with 100 μl tested compounds in PBS in polypropylene 96-well microtiter plates and incubated for 1 h at 37°C. After incubation, the plate was centrifuged for 5 min at 1,500 rpm and 100 μl supernatant was transferred to a new 96-well plate to determine the absorbance at 570 nm. RBCs in PBS served as negative control while RBCs treated with 1% Triton X-100 in PBS served as a positive control. The percent of hemolysis (%) was calculated using the following formula Hemolysise (%)=(OD570nm of treated sample-OD570nm of negative control)/(OD570nm of positive control-OD570nm of negative control)×100%

[6] = tested on: S. enteritidis; experiment: Time-killing curve assay; conditions: at sub-MBC (lowest concentrations with synergy), followed to 180 min
Description: (§3) The bacterial suspension was prepared as described above. […] After overnight culture, colony counting was performed.

[7] = tested on: S. aureus; experiment: Time-killing curve assay; type: cell-based, Staphylococcus aureus; conditions: at sub-MBC (lowest concentrations with synergy), followed to 180 min
Description: as §3

[8] = tested on: E. coli; experiment: Time-killing curve assay; type: cell-based, Escherichia coli; conditions: at sub-MBC (lowest concentrations with synergy), followed to 180 min
Description: as §3

[9] = tested on: E. coli; experiment: Motility assay on semisolid agar; type: cell-based, Escherichia coli; conditions: alone at 1/4 MIC, 18 h
[10] = tested on: E. coli; experiment: SEM analysis of bacterial morphology; type: cell-based, Escherichia coli; conditions: 1/16 MBC of each agent, 6 h, 37°C, 1 × 10^8 CFU/ml
Description: After incubation, bacterial suspension was centrifuged and washed with PBS three times. Then, bacterial pellets were fixed with 1.5 ml of 2.5% glutaraldehyde in PBS at 4°C overnight. Finally, samples were sent to the Lilai biomedicine experiment center (Sichuan, China) for SEM analysis.

[11] = tested on: E. coli; type: cell-based, Escherichia coli
Description: Drug resistance induction of E. coli was performed as previously reported. […] Bacteria from the highest concentration of drug combination were regrown, and MIC of erythromycin was measured, and then bacteria were treated again with the drug combination. The change in MIC was described by normalizing the MIC of the n generation to the MIC of first generation.

Structure (SMILES): CN(C)[C@@H]1C(O)=C(C(N)=O)C(=O)[C@@]2(O)C(O)=C3C(=O)c4c(O)cccc4[C@@](C)(O)[C@H]3C[C@@H]12 [Tetracycline, tetracycline]
- MBC [1]: 10 µM (≈ 4.44 µg/mL)
- MBC [2]: 40 µM (≈ 17.8 µg/mL)
- MBC [3]: 640 µM (≈ 284 µg/mL)
- MIC [3]: 40 µM (≈ 17.8 µg/mL)

Structure (SMILES): CC1(C)S[C@@H]2[C@H](NC(=O)[C@H](N)c3ccccc3)C(=O)N2[C@H]1C(=O)O [Ampicillin, ampicillin]
- MBC [1]: 160 µM (≈ 55.9 µg/mL)
- MIC [1]: 160 µM (≈ 55.9 µg/mL)
- MBC [2]: 640 µM (≈ 224 µg/mL)
- MIC [2]: 80 µM (≈ 28 µg/mL)
- MBC [3]: > 5120 µM
- MIC [3]: 5120 µM (≈ 1790 µg/mL)

Structure (SMILES): CC[C@H](C)[C@H](NC(=O)CNC(=O)[C@H](C)NC(=O)[C@H](C)NC(=O)[C@@H](NC(=O)[C@@H](NC(=O)[C@H](CC(N)=O)NC(=O)[C@@H](NC(=O)[C@H](C)NC(=O)[C@@H](NC(=O)[C@@H]1CCCN1C(=O)[C@@H](NC(=O)[C@H](CC(C)C)NC(=O)[C@@H]1CCCN1C(=O)[C@H](Cc1c[nH]c2ccccc12)NC(=O)[C@H](Cc1ccccc1)NC(=O)[C@H](CCCNC(=N)N)NC(=O)[C@H](CCCCN)NC(=O)[C@@H](NC(=O)[C@@H](N)CCCNC(=N)N)C(C)C)C(C)C)C(C)C)[C@@H](C)CC)[C@@H](C)O)C(C)C)C(=O)N[C@@H](CC(N)=O)C(=O)N[C@@H](CC(C)C)C(=O)N[C@@H](Cc1ccc(O)cc1)C(=O)N[C@@H](CCCCN)C(=O)N[C@@H](C)C(=O)N[C@H](C(=O)N[C@@H](CCCNC(=N)N)C(=O)N[C@@H](CCCNC(=N)N)C(=O)N[C@@H](CCCCN)C(=O)O)[C@@H](C)CC [CATH-3] (H-RVKRFWPLVPVAINTVAAGINLYKAIRRK-OH)
- toxicity to PK-15 cells [4]: did not show toxicity
- hemolysis ([5]; red cells of mouse, 1 h): < 20%

Structure (SMILES): CNC(C)C1CCC(N)C(OC2C(N)CC(N)C(OC3OCC(C)(O)C(NC)C3O)C2O)O1 (centres unmarked) [Gentamicin, gentamicin]
- MBC [1]: 2.5 µM (≈ 1.19 µg/mL)
- MIC [1]: 1.25 µM (≈ 0.597 µg/mL)
- MBC [2]: 40 µM (≈ 19.1 µg/mL)
- MIC [2]: 20 µM (≈ 9.55 µg/mL)
- MBC [3]: 5 µM (≈ 2.39 µg/mL)
- MIC [3]: 2.5 µM (≈ 1.19 µg/mL)

Structure (SMILES): CC[C@H](C)[C@H](NC(=O)[C@H](CCCCN)NC(=O)[C@H](CCCCN)NC(=O)[C@H](CC(C)C)NC(=O)[C@H](CCCNC(=N)N)NC(=O)[C@H](CCCCN)NC(=O)[C@H](CCCNC(=N)N)NC(=O)[C@@H](NC(=O)[C@H](CCCCN)NC(=O)[C@H](CCCCN)NC(=O)[C@H](CCCNC(=N)N)NC(=O)[C@H](CC(C)C)NC(=O)[C@H](CCCNC(=N)N)NC(=O)[C@H](CCCNC(=N)N)NC(=O)[C@H](Cc1ccccc1)NC(=O)[C@H](CCCNC(=N)N)NC(=O)CN)[C@@H](C)O)C(=O)NCC(=O)N[C@@H](CCCCN)C(=O)N[C@H](C(=O)N[C@@H](CC(C)C)C(=O)N[C@@H](CCCCN)C(=O)N[C@@H](Cc1c[nH]c2ccccc12)C(=O)N[C@H](C(=O)N1CCC[C@H]1C(=O)N1CCC[C@H]1C(=O)N[C@H](C(=O)N[C@H](C(=O)NCC(=O)N[C@@H](CO)C(=O)N[C@H](C(=O)N1CCC[C@H]1C(=O)N[C@@H](CC(C)C)C(=O)NCC(=O)N[C@@H](CS)C(=O)NCC(=O)O)[C@@H](C)CC)C(C)C)[C@@H](C)CC)[C@@H](C)CC)C(C)C [PMAP-36] (H-GRFRRLRKKTRKRLKKIGKVLKWIPPIVGSIPLGCG-OH)
- cell viability ([4]; 2 h): < 30%
- hemolysis ([5]; red cells of mouse, 1 h): < 20%

Structure (SMILES): CC[C@H]1OC(=O)[C@H](C)[C@@H](O[C@H]2C[C@@](C)(OC)[C@@H](O)[C@H](C)O2)[C@H](C)[C@@H](O[C@@H]2O[C@H](C)C[C@H](N(C)C)[C@H]2O)[C@](C)(O)C[C@@H](C)C(=O)[C@H](C)[C@@H](O)[C@]1(C)O [Erythromycin, erythromycin]
- time to kill all bacteria [6]: > 180 min
- time to kill all bacteria [7]: > 180 min
- time to kill all bacteria [8]: > 180 min
- MBC [1]: > 5120 µM
- MIC [1]: 40 µM (≈ 29.4 µg/mL)
- cell viability [4]: < 30%
- effect on bacterial migration distance [9]: did not affect bacterial migration distance
- MBC [2]: > 5120 µM
- MIC [2]: 5120 µM (≈ 3760 µg/mL)
- E. coli cellular morphology by SEM [10]: induced the formation of micelles
- hemolysis [5]: > 95%
- MBC [3]: > 5120 µM
- MIC [3]: 80 µM (≈ 58.7 µg/mL)
- MIC of erythromycin increase [11]: 16 fold
- MIC increase ([11]; […], 14th generation, relative to first generation): 2 fold

From PMC9335283 (Frontiers in Microbiology, 2022)
